# In patent US20100298141A1, “SUBSTITUTED PYRIDINE N-OXIDE HERBICIDES” (E. I. DU PONT DE NEMOURS AND COMPANY, priority 2007, published 2010):
# Columns and labels:
# Assay in all cases: Test F preemergence test
# dallisgrass = type: in vivo, Paspalum dilatatum; conditions: scale 0 to 100
# Summary of the method: (§1)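 Test chemicals were formulated in a non-phytotoxic solvent mixture with surfactant and applied preemergence to planted seeds or postemergence to sugarcane plants. Plants were kept in a greenhouse for 14 to 21 days, then visually evaluated against controls.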
# pitted morningglory = type: in vivo, Ipomoea lacunosa; conditions: scale 0 to 100
# Description: Seeds of plant species selected from bermudagrass (Cynodon dactylon), Surinam grass (Brachiaria decumbens), large crabgrass (Digitaria sanguinalis), green foxtail (Setaria viridis), goosegrass (Eleusine indica), johnsongrass (Sorghum halepense), kochia (Kochia scoparia), pitted morningglory (Ipomoea lacunosa), purple nutsedge (Cyperus rotundus), common ragweed (Ambrosia elation), mustard (Brassica nigra), guineagrass (Panicum maximum), […] (Paspalum dilatatum), barnyardgrass (Echinochloa crus-galli), southern sandbur (Cenchrus echinatus), common sowthistle (Sonchus oleraceous), prickly […] spinosa), Italian ryegrass (Lolium multiflorum), common purslane (Portulaca oleracea), broadleaf signalgrass (Brachiaria platyphylla), common groundsel (Senecio vulgaris), common chickweed (Stellaria media), Virginia dayflower (Commelina virginica), annual bluegrass (Poa annua), naked crabgrass (Digitaria nuda), […] cochinchinensis), quackgrass (Elytrigia repens), Canada horseweed (Conyza canadensis), field bindweed (Convolvulus arvensis), […] (Bidens bipinnata), common mallow (Malva sylvestris), Russian thistle (Salsola kali), and sugarcane (Saccharum officinarum) were planted and treated preemergence with test chemicals formulated in a non-phytotoxic solvent mixture which included a surfactant. At a different time, sugarcane was treated with postemergence applications of some of the test chemicals formulated in the same manner. Plants were approximately 3- to 4-leaf stage for the postemergence treatments. Treated plants and controls were maintained in a greenhouse for 14 to 21 days, after which time all species were compared to controls and visually evaluated. […] A dash (-) response means no test result.
# mustard = type: in vivo, Brassica nigra; conditions: scale 0 to 100
# Summary of the method: as §1
# quackgrass = type: in vivo, Elytrigia repens; conditions: scale 0 to 100
# Summary of the method: as §1
# Surinam grass = type: in vivo, Brachiaria decumbens; conditions: scale 0 to 100; for Surinam Grass plant response rating: preemergence; for Plant response rating, Surinam Grass: Preemergence
# Summary of the method: as §1
# common ragweed = type: in vivo, Ambrosia elation; conditions: scale 0 to 100; for Ragweed plant response rating: preemergence; for Plant response rating, Ragweed: Preemergence
# Summary of the method: as §1
# itchgrass = type: in vivo, Rottboellia cochinchinensis; conditions: scale 0 to 100
# Summary of the method: as §1
# common groundsel = type: in vivo, Senecio vulgaris; conditions: scale 0 to 100
# Summary of the method: as §1
# Italian ryegrass = type: in vivo, Lolium multiflorum; conditions: scale 0 to 100; for Ryegrass, Italian plant response rating: preemergence; for Plant response rating, Ryegrass, Italian: Preemergence
# Summary of the method: as §1
# kochia = type: in vivo, Kochia scoparia; conditions: scale 0 to 100
# Summary of the method: as §1
# barnyardgrass = type: in vivo, Echinochloa crus-galli; conditions: scale 0 to 100
# Summary of the method: as §1
# guineagrass = type: in vivo, Panicum maximum; conditions: scale 0 to 100
# Summary of the method: as §1
# broadleaf signalgrass = type: in vivo, Brachiaria platyphylla; conditions: scale 0 to 100; for Signalgrass plant response rating: preemergence; for Plant response rating, Signalgrass: Preemergence
# Summary of the method: as §1
# large crabgrass = type: in vivo, Digitaria sanguinalis; conditions: scale 0 to 100
# Summary of the method: as §1
# common purslane = type: in vivo, Portulaca oleracea; conditions: scale 0 to 100
# Summary of the method: as §1
# prickly sida = type: in vivo, Sida spinosa; conditions: scale 0 to 100
# Summary of the method: as §1
# johnsongrass = type: in vivo, Sorghum halepense; conditions: scale 0 to 100
# Summary of the method: as §1
# goosegrass = type: in vivo, Eleusine indica; conditions: scale 0 to 100
# Summary of the method: as §1
# bermudagrass = type: in vivo, Cynodon dactylon; conditions: scale 0 to 100
# Summary of the method: as §1
# naked crabgrass = type: in vivo, Digitaria nuda; conditions: scale 0 to 100
# Summary of the method: as §1
compound,measurement,setting,value
CCc1cc[n+]([O-])c(S(=O)(=O)Cc2c(C(F)(F)F)nn(C)c2OCC(F)(F)F)c1 [Compound 60],Dallisgrass plant response rating,"dallisgrass; 62 g ai/ha, Preemergence",75
same,Dallisgrass plant response rating,"dallisgrass; 125 g ai/ha, preemergence",80
same,Dallisgrass plant response rating,"dallisgrass; 250 g ai/ha, preemergence",100
same,"Plant response rating, Dallisgrass","dallisgrass; Preemergence, 31 g ai/ha",75
same,Morningglory plant response rating,"pitted morningglory; 62 g ai/ha, Preemergence",0
same,Morningglory plant response rating,"pitted morningglory; 125 g ai/ha, preemergence",70
same,Morningglory plant response rating,"pitted morningglory; 250 g ai/ha, preemergence",100
same,"Plant response rating, Morningglory","pitted morningglory; Preemergence, 31 g ai/ha",0
same,Black Mustard plant response rating,"mustard; 62 g ai/ha, Preemergence",60
same,Black Mustard plant response rating,"mustard; 125 g ai/ha, preemergence",100
same,Black Mustard plant response rating,"mustard; 250 g ai/ha, preemergence",100
same,"Plant response rating, Black Mustard","mustard; Preemergence, 31 g ai/ha",0
same,Quackgrass plant response rating,"quackgrass; 62 g ai/ha, Preemergence",75
same,Quackgrass plant response rating,"quackgrass; 125 g ai/ha, preemergence",90
same,Quackgrass plant response rating,"quackgrass; 250 g ai/ha, preemergence",100
same,"Plant response rating, Quackgrass","quackgrass; Preemergence, 31 g ai/ha",30
same,Surinam Grass plant response rating,Surinam grass; 125 g ai/ha,100
same,Surinam Grass plant response rating,Surinam grass; 250 g ai/ha,100
same,"Plant response rating, Surinam Grass",Surinam grass; 62 g ai/ha,90
same,"Plant response rating, Surinam Grass",Surinam grass; 31 g ai/ha,80
same,Ragweed plant response rating,common ragweed; 125 g ai/ha,75
same,Ragweed plant response rating,common ragweed; 250 g ai/ha,100
same,"Plant response rating, Ragweed",common ragweed; 62 g ai/ha,65
same,"Plant response rating, Ragweed",common ragweed; 31 g ai/ha,0
same,Itchgrass plant response rating,"itchgrass; 62 g ai/ha, Preemergence",15
same,Itchgrass plant response rating,"itchgrass; 125 g ai/ha, preemergence",25
same,Itchgrass plant response rating,"itchgrass; 250 g ai/ha, preemergence",70
same,"Plant response rating, Itchgrass","itchgrass; Preemergence, 31 g ai/ha",0
same,Groundsel plant response rating,"common groundsel; 62 g ai/ha, Preemergence",60
same,Groundsel plant response rating,"common groundsel; 125 g ai/ha, preemergence",75
same,Groundsel plant response rating,"common groundsel; 250 g ai/ha, preemergence",95
same,"Plant response rating, Groundsel","common groundsel; Preemergence, 31 g ai/ha",0
same,"Ryegrass, Italian plant response rating",Italian ryegrass; 125 g ai/ha,90
same,"Ryegrass, Italian plant response rating",Italian ryegrass; 250 g ai/ha,100
same,"Plant response rating, Ryegrass, Italian",Italian ryegrass; 62 g ai/ha,75
same,"Plant response rating, Ryegrass, Italian",Italian ryegrass; 31 g ai/ha,75
same,Kochia plant response rating,"kochia; 62 g ai/ha, Preemergence",65
same,Kochia plant response rating,"kochia; 125 g ai/ha, preemergence",100
same,Kochia plant response rating,"kochia; 250 g ai/ha, preemergence",100
same,"Plant response rating, Kochia","kochia; Preemergence, 31 g ai/ha",0
same,Barnyardgrass plant response rating,"barnyardgrass; 62 g ai/ha, Preemergence",100
same,Barnyardgrass plant response rating,"barnyardgrass; 125 g ai/ha, preemergence",100
same,Barnyardgrass plant response rating,"barnyardgrass; 250 g ai/ha, preemergence",100
same,"Plant response rating, Barnyardgrass","barnyardgrass; Preemergence, 31 g ai/ha",65
same,Guineagrass plant response rating,"guineagrass; 62 g ai/ha, Preemergence",100
same,Guineagrass plant response rating,"guineagrass; 125 g ai/ha, preemergence",100
same,Guineagrass plant response rating,"guineagrass; 250 g ai/ha, preemergence",100
same,"Plant response rating, Guineagrass","guineagrass; Preemergence, 31 g ai/ha",35
same,Signalgrass plant response rating,broadleaf signalgrass; 125 g ai/ha,75
same,Signalgrass plant response rating,broadleaf signalgrass; 250 g ai/ha,100
same,"Plant response rating, Signalgrass",broadleaf signalgrass; 62 g ai/ha,75
same,"Plant response rating, Signalgrass",broadleaf signalgrass; 31 g ai/ha,30
same,"Crabgrass, Large plant response rating","large crabgrass; 62 g ai/ha, Preemergence",98
same,"Crabgrass, Large plant response rating","large crabgrass; 125 g ai/ha, preemergence",100
same,"Crabgrass, Large plant response rating","large crabgrass; 250 g ai/ha, preemergence",100
same,"Plant response rating, Crabgrass, Large","large crabgrass; Preemergence, 31 g ai/ha",0
same,Purslane plant response rating,"common purslane; 62 g ai/ha, Preemergence",0
same,Purslane plant response rating,"common purslane; 125 g ai/ha, preemergence",25
same,Purslane plant response rating,"common purslane; 250 g ai/ha, preemergence",60
same,"Plant response rating, Purslane","common purslane; Preemergence, 31 g ai/ha",0
same,Prickly Sida plant response rating,"prickly sida; 62 g ai/ha, Preemergence",40
same,Prickly Sida plant response rating,"prickly sida; 125 g ai/ha, preemergence",75
same,Prickly Sida plant response rating,"prickly sida; 250 g ai/ha, preemergence",75
same,"Plant response rating, Prickly Sida","prickly sida; Preemergence, 31 g ai/ha",0
same,Johnsongrass plant response rating,"johnsongrass; 62 g ai/ha, Preemergence",50
same,Johnsongrass plant response rating,"johnsongrass; 125 g ai/ha, preemergence",95
same,Johnsongrass plant response rating,"johnsongrass; 250 g ai/ha, preemergence",100
same,"Plant response rating, Johnsongrass","johnsongrass; Preemergence, 31 g ai/ha",0
same,Goosegrass plant response rating,"goosegrass; 62 g ai/ha, Preemergence",80
same,Goosegrass plant response rating,"goosegrass; 125 g ai/ha, preemergence",100
same,Goosegrass plant response rating,"goosegrass; 250 g ai/ha, preemergence",100
same,"Plant response rating, Goosegrass","goosegrass; Preemergence, 31 g ai/ha",80
same,Bermudagrass plant response rating,"bermudagrass; 62 g ai/ha, Preemergence",80
same,Bermudagrass plant response rating,"bermudagrass; 125 g ai/ha, preemergence",100
same,Bermudagrass plant response rating,"bermudagrass; 250 g ai/ha, preemergence",100
same,"Plant response rating, Bermudagrass","bermudagrass; Preemergence, 31 g ai/ha",20
same,"Crabgrass, Naked plant response rating","naked crabgrass; 62 g ai/ha, Preemergence",100
same,"Crabgrass, Naked plant response rating","naked crabgrass; 125 g ai/ha, preemergence",100
same,"Crabgrass, Naked plant response rating","naked crabgrass; 250 g ai/ha, preemergence",100
same,"Plant response rating, Crabgrass, Naked","naked crabgrass; Preemergence, 31 g ai/ha",20
